This is an account of results in patent US12606556B2, “TYK-2 inhibitor” (BEIGENE, LTD., priority 2020, dated 2026).

The target in assay [1] is T1, TYK2-JH2 (aa 575-869, in-house) protein (Homo sapiens, UniProt P29597).
T1 construct: TYK2-JH2 (aa 575-869, in-house) protein; made in house
The assay is described as follows: TYK2-JH2 biochemical assay (HTRF, blocking of TYK2-JH2 protein with its probe). It is filed as binding. The note with it: for IC50: HTRF, 0.2 nM recombinant TYK2-JH2, Probe 1; for Biochemical assay Selectivity fold (TYK2/JAK1): TYK2-JH2 vs JAK1-JH2 biochemical IC50. The essentials: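 Recombinant TYK2-JH2 (0.2 nM) pre-incubated with compounds (10 doses, 5-fold dilutions) 0.5 h at RT in HEPES pH 7.5 buffer with MgCl2, BSA, DTT, Brij-35; biotinylated probe (10 nM working solution, KD=10 nM) plus anti-6His Tb cryptate/streptavidin-XL665 added, 1 h RT. HTRF ratio read; IC50 from four-parameter logistic fit.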
On the technique in general: TR-FRET usually uses a lanthanide donor and a delayed reading to cut background.

The test system of assay [2] is JAK1/p-STAT3(Tyr705) activated by IL-6 in TF-1 cell line. The experiment in a line: IL-6-JAK1/p-STAT3(Tyr705) inhibition cellular assay. It counts as cell-based. The settings on record: Homo sapiens, 0.5 h; TF-1 cells, IL-6 50 ng/ml, 30 min; read-out: Cellular assay pSTAT3/IL-6 IC50.
Assay [3] deals with JAK2, TYK2/p-STAT4 (Tyr693) activated by IL-12 in NK-92 cell line. The experiment in a line: IL-12-JAK2, TYK2/p-STAT4 (Tyr693) inhibition cellular assay. It is filed as cell-based. The note with it: for IC50: NK92, 0.5 h, NK-92 cells, IL-12 40 ng/ml, 30 min, read-out: Cellular assay pSTAT4/IL-12 IC50; for Cellular assay Selectivity fold (TYK2/JAK1): pSTAT4/IL-12 vs pSTAT3/IL-6 cellular IC50. The essentials: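 NK-92 cells were starved overnight without IL-2 and seeded at 5×10^4 per well in 1640 medium with 0.1% BSA. Lysate p-STAT4 (Tyr693) was measured by AlphaLISA SureFire, and IC50 was fitted with a 4-parameter logistic model.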

In assay [4] the target is T2, JAK1-JH2 protein (aa 561-860, in-house) (Homo sapiens, UniProt P23458).
T2 construct: JAK1-JH2 protein (aa 561-860, in-house); made in house
The assay is described as follows: JAK1-JH2 biochemical assay (HTRF, blocking of JAK1-JH2 protein with its probe). The settings on record: 1.17 nM recombinant JAK1-JH2, Probe 2. It counts as binding. The essentials: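 HTRF probe-displacement assay using recombinant human JAK1 pseudokinase domain (aa 561-860, 1.17 nM in pre-incubation step), pre-incubated 0.5 h at room temperature with 10-dose 5-fold compound series. Buffer: 20 mM HEPES pH 7.5, 10 mM MgCl2, 0.005% BSA, 2 mM DTT, 0.015% Brij-35. IC50 by four-parameter logistic fit of 615/665 nm ratio.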

T2 sequence (P23458 561-860): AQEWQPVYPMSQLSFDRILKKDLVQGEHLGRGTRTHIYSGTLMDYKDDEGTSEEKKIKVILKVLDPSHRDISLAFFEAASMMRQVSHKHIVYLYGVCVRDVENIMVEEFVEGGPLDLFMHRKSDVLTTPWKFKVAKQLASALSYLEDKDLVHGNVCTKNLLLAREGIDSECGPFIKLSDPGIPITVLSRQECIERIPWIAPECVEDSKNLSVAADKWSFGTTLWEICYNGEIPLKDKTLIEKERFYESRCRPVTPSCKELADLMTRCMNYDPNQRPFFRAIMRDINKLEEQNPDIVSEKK
T1 sequence (P29597 575-869): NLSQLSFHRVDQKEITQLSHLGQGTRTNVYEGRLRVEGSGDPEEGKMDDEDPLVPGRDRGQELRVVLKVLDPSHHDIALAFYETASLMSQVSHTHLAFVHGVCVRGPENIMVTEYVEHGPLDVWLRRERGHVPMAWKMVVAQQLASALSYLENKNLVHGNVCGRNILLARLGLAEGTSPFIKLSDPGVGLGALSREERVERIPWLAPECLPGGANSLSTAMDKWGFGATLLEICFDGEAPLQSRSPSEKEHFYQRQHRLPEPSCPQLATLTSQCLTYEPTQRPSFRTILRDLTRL

For `CNC(=O)c1nnc(NC(=O)C2CC2)cc1Nc1nc2ccc(N3CC(OCCOC)C3)cn2n1` [Example E16, 6-(cyclopropanecar-boxamido)-4-((6-(3-(2-methoxyethoxy)azetidin-1-yl)-[1,2,4]triazolo[1,5-a]pyridin-2-yl)amino)-N-methylpyridazine-3-carboxamide], the IC50 in assay [1] is 0.046 nM; in assay [2], 2910 nM; in assay [3], 15.6 nM; in assay [4] it was 0.93 nM. In assay [1], the “Biochemical assay Selectivity fold (TYK2/JAK1)” value was 20 fold. In assay [3], the “Cellular assay Selectivity fold (TYK2/JAK1)” value was 186 fold.
As to `CNC(=O)c1nnc(NC(=O)C2CC2)cc1Nc1nc2ccc(OC3CN(C(=O)CC#N)C3)cn2n1` [Example C5, 4-((6-((1-(2-cyanoacetyl)azetidin-3-yl)oxy)-[1,2,4]triazolo[1,5-a]pyridin-2-yl)amino)-6-(cyclopro-panecarbox-amido)-N-methyl-pyridazine-3-carboxamide], the IC50 in assay [1] is 0.143 nM; in assay [2] it was above 10000 nM; in assay [3] it was 1320 nM; in assay [4], 1.56 nM. Moreover, the “Biochemical assay Selectivity fold (TYK2/JAK1)” value in assay [1] amounted to 11 fold. Further, the “Cellular assay Selectivity fold (TYK2/JAK1)” value in assay [3] was above 8 fold.
With `CNC(=O)c1nnc(NC(=O)C2CC2)cc1Nc1nc2ccccn2n1` [Example A4, 4-([1,2,4]triazolo[1,5-a]pyridin-2-ylamino)-6-(cyclopropane-carboxamido)-N-methyl-pyridazine-3-carboxamide], the IC50 in assay [1] came out at 0.16 nM; in assay [2], 2410 nM; in assay [3] it was 104 nM; in assay [4] it was 1.3 nM. Moreover, the “Biochemical assay Selectivity fold (TYK2/JAK1)” value in assay [1] amounted to 8 fold. Further, in assay [3], the “Cellular assay Selectivity fold (TYK2/JAK1)” value turned out to be 23 fold.
On to `CNC(=O)c1nnc(NC(=O)C2CC2)cc1Nc1nc2ccc(N3C(=O)CC3c3ccccc3)cn2n1` (stereo not drawn) [Example K1, 6-(cyclopropanecarboxamido)-N-methyl-4-((6-(2-oxo-4-phenylazetidin-1-yl)-[1,2,4]triazolo[1,5-a]pyridin-2-yl)amino)pyridazine-3-carboxamide], for which the IC50 in assay [1] was 0.5 nM; in assay [2], above 10000 nM; in assay [3], 219 nM; in assay [4], 3.8 nM. Further, the “Biochemical assay Selectivity fold (TYK2/JAK1)” value in assay [1] is on record as 8 fold. Besides, the “Cellular assay Selectivity fold (TYK2/JAK1)” value in assay [3] was above 46 fold.
